Measured values: PubChem BioAssay AID2060609 (Molecular Pharmacology Branch, DTP, NCI, 2025)

Tested on: 855422-203-R-J1-PDC complex spheroids, viability
Assay: Anticancer human tumor 855422-203-R-J1-PDC patient-derived bladder carcinoma cell line growth inhibition [CLK]
Details: for IC50: curve of first compound; for viability, T/C: stronger effect = lower value
In short: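 Multi-cell-type spheroids combined patient-derived tumor cells with HUVEC endothelial cells and human mesenchymal stem cells. Paired agents were dosed in half-log steps down from about clinical Cmax, or from 10 microM where Cmax was unknown.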
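Also: spheroids exposed to drugs for seven days before readout.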
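For viability, T/C in this document: 100% = DMSO vehicle control wells.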

C=CC(=O)Nc1cc(Nc2nccc(-c3cn(C)c4ccccc34)n2)c(OC)cc1N(C)CCN(C)C + CNC(=O)c1ccc(Nc2nc(OC3CCCC3)c3c(-c4ccc5nc(C)oc5c4)c[nH]c3n2)c(OC)c1
IC50 (second compound 0.0316 µM): > 300 nM
IC50 (second compound 0.1 µM): 1.17 nM
IC50 (second compound 0.316 µM): < 0.949 nM
IC50 (second compound 1 µM): < 0.949 nM
IC50 (second compound 3.16 µM): < 0.949 nM
IC50 (second compound 10 µM): < 0.949 nM
viability, T/C (second compound 0.0316 µM, first compound 0.000949 µM): 108%
viability, T/C (second compound 0.0316 µM, first compound 0.003 µM): 112%
viability, T/C (second compound 0.0316 µM, first compound 0.00949 µM): 109%
viability, T/C (second compound 0.0316 µM, first compound 0.03 µM): 97.1%
viability, T/C (second compound 0.0316 µM, first compound 0.0949 µM): 98.8%
viability, T/C (second compound 0.0316 µM, first compound 0.3 µM): 76.3%
viability, T/C (second compound 0.1 µM, first compound 0.000949 µM): 53.6%
viability, T/C (second compound 0.1 µM, first compound 0.003 µM): 33.9%
viability, T/C (second compound 0.1 µM, first compound 0.00949 µM): 29.3%
viability, T/C (second compound 0.1 µM, first compound 0.03 µM): 29.2%
viability, T/C (second compound 0.1 µM, first compound 0.0949 µM): 28.6%
viability, T/C (second compound 0.1 µM, first compound 0.3 µM): 22.4%
viability, T/C (second compound 0.316 µM, first compound 0.000949 µM): 21.3%
viability, T/C (second compound 0.316 µM, first compound 0.003 µM): 22.4%
viability, T/C (second compound 0.316 µM, first compound 0.00949 µM): 19.1%
viability, T/C (second compound 0.316 µM, first compound 0.03 µM): 21.8%
viability, T/C (second compound 0.316 µM, first compound 0.0949 µM): 24%
viability, T/C (second compound 0.316 µM, first compound 0.3 µM): 20.1%
viability, T/C (second compound 1 µM, first compound 0.000949 µM): 19.4%
viability, T/C (second compound 1 µM, first compound 0.003 µM): 21%
viability, T/C (second compound 1 µM, first compound 0.00949 µM): 27.3%
viability, T/C (second compound 1 µM, first compound 0.03 µM): 23.5%
viability, T/C (second compound 1 µM, first compound 0.0949 µM): 22%
viability, T/C (second compound 1 µM, first compound 0.3 µM): 16.2%
viability, T/C (second compound 3.16 µM, first compound 0.000949 µM): 25.8%
viability, T/C (second compound 3.16 µM, first compound 0.003 µM): 23.1%
viability, T/C (second compound 3.16 µM, first compound 0.00949 µM): 20.8%
viability, T/C (second compound 3.16 µM, first compound 0.03 µM): 21.9%
viability, T/C (second compound 3.16 µM, first compound 0.0949 µM): 21.9%
viability, T/C (second compound 3.16 µM, first compound 0.3 µM): 16.5%
viability, T/C (second compound 10 µM, first compound 0.000949 µM): 19.7%
viability, T/C (second compound 10 µM, first compound 0.003 µM): 21.6%
viability, T/C (second compound 10 µM, first compound 0.00949 µM): 18.3%
viability, T/C (second compound 10 µM, first compound 0.03 µM): 19.1%
viability, T/C (second compound 10 µM, first compound 0.0949 µM): 23.3%
viability, T/C (second compound 10 µM, first compound 0.3 µM): 21.9%

COc1cccc2c1C(=O)c1c(O)c3c(c(O)c1C2=O)CC(O)(C(=O)CO)CC3OC1CC(N)C(O)C(C)O1 (centres undefined) + CNC(=O)c1ccc(Nc2nc(OC3CCCC3)c3c(-c4ccc5nc(C)oc5c4)c[nH]c3n2)c(OC)c1
IC50 (second compound 0.0316 µM): < 31.6 nM
IC50 (second compound 0.1 µM): < 31.6 nM
IC50 (second compound 0.316 µM): < 31.6 nM
IC50 (second compound 1 µM): < 31.6 nM
IC50 (second compound 3.16 µM): < 31.6 nM
IC50 (second compound 10 µM): < 31.6 nM
viability, T/C (second compound 0.0316 µM, first compound 0.0316 µM): 10.3%
viability, T/C (second compound 0.0316 µM, first compound 0.1 µM): 2.45%
viability, T/C (second compound 0.0316 µM, first compound 0.316 µM): 0.72%
viability, T/C (second compound 0.0316 µM, first compound 1 µM): 0.22%
viability, T/C (second compound 0.0316 µM, first compound 3.16 µM): 0.45%
viability, T/C (second compound 0.0316 µM, first compound 10 µM): 0.6%
viability, T/C (second compound 0.1 µM, first compound 0.0316 µM): 11%
viability, T/C (second compound 0.1 µM, first compound 0.1 µM): 1.62%
viability, T/C (second compound 0.1 µM, first compound 0.316 µM): 1.02%
viability, T/C (second compound 0.1 µM, first compound 1 µM): 0.3%
viability, T/C (second compound 0.1 µM, first compound 3.16 µM): 0.4%
viability, T/C (second compound 0.1 µM, first compound 10 µM): 0.51%
viability, T/C (second compound 0.316 µM, first compound 0.0316 µM): 9.64%
viability, T/C (second compound 0.316 µM, first compound 0.1 µM): 1.3%
viability, T/C (second compound 0.316 µM, first compound 0.316 µM): 0.46%
viability, T/C (second compound 0.316 µM, first compound 1 µM): 0.22%
viability, T/C (second compound 0.316 µM, first compound 3.16 µM): 0.45%
viability, T/C (second compound 0.316 µM, first compound 10 µM): 0.55%
viability, T/C (second compound 1 µM, first compound 0.0316 µM): 7.4%
viability, T/C (second compound 1 µM, first compound 0.1 µM): 1.13%
viability, T/C (second compound 1 µM, first compound 0.316 µM): 0.24%
viability, T/C (second compound 1 µM, first compound 1 µM): 0.56%
viability, T/C (second compound 1 µM, first compound 3.16 µM): 0.58%
viability, T/C (second compound 1 µM, first compound 10 µM): 0.82%
viability, T/C (second compound 3.16 µM, first compound 0.0316 µM): 9.03%
viability, T/C (second compound 3.16 µM, first compound 0.1 µM): 0.94%
viability, T/C (second compound 3.16 µM, first compound 0.316 µM): 0.2%
viability, T/C (second compound 3.16 µM, first compound 1 µM): 0.62%
viability, T/C (second compound 3.16 µM, first compound 3.16 µM): 0.98%
viability, T/C (second compound 3.16 µM, first compound 10 µM): 0.75%
viability, T/C (second compound 10 µM, first compound 0.0316 µM): 6.1%
viability, T/C (second compound 10 µM, first compound 0.1 µM): 0.68%
viability, T/C (second compound 10 µM, first compound 0.316 µM): 0.35%
viability, T/C (second compound 10 µM, first compound 1 µM): 0.72%
viability, T/C (second compound 10 µM, first compound 3.16 µM): 0.63%
viability, T/C (second compound 10 µM, first compound 10 µM): 1.3%
